PubChem BioAssay AID328 (DTP/NCI, 2004)
Several values for one entry are separate records, joined by “and”; a condition that tells them apart may be missing. Equal entries are not always repeated. Inconclusive results and toxic doses are left out.

Test system: BDF1 mice, P388 leukemia ip, median survival T/C
Test: NCI In Vivo Anticancer Drug Screen. Data for tumor model P388 Leukemia (intraperitoneal) in B6D2F1 (BDF1) mice
Conditions: endpoint: median survival time, higher = longer survival
Method in brief: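 Each value expresses how treatment altered survival: treated-mouse outcome over vehicle-mouse outcome, both groups bearing the transplanted tumour.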

O=c1[nH]cc(F)c(=O)n1C1OC(CO)C(O)C1O (stereo not drawn)
T/C (dose: 0.75 mg/kg/injection, schedule: Q01DX009 (ip), vehicle: saline): 169 % of control and 180 % of control
T/C (dose: 1.5 mg/kg/injection, schedule: Q01DX009 (ip), vehicle: saline): 162 % of control and 217 % of control
T/C (dose: 3.0 mg/kg/injection, schedule: Q01DX009 (ip), vehicle: saline): 230 % of control and 188 % of control
T/C (dose: 6.0 mg/kg/injection, schedule: Q01DX009 (ip), vehicle: saline): 100 % of control

C(=C/c1nc2ccccc2o1)/c1ccc2c(c1)OCO2
T/C (dose: 50.0 mg/kg/injection, schedule: Q01DX011 (ip), vehicle: Klucel (hydroxypropylcellulose) (HPC)): 102 % of control
T/C (dose: 100.0 mg/kg/injection, schedule: Q01DX001 (ip), vehicle: Klucel (hydroxypropylcellulose) (HPC)): 100 % of control
T/C (dose: 100.0 mg/kg/injection, schedule: Q01DX011 (ip), vehicle: Klucel (hydroxypropylcellulose) (HPC)): 99 % of control
T/C (dose: 200.0 mg/kg/injection, schedule: Q01DX001 (ip), vehicle: Klucel (hydroxypropylcellulose) (HPC)): 86 % of control
T/C (dose: 200.0 mg/kg/injection, schedule: Q01DX011 (ip), vehicle: Klucel (hydroxypropylcellulose) (HPC)): 100 % of control
T/C (dose: 400.0 mg/kg/injection, schedule: Q01DX001 (ip), vehicle: Klucel (hydroxypropylcellulose) (HPC)): 94 % of control

CC(C)CCCC(C)C1CCC2C3CC=C4CC(O)CCC4(C)C3CCC12C (stereo not drawn) (tested in a mixture with another compound)
T/C (dose: 25.0 mg/kg/injection, schedule: Q04DX003 (ip), vehicle: alcohol): 90 % of control
T/C (dose: 50.0 mg/kg/injection, schedule: Q04DX003 (ip), vehicle: alcohol): 100 % of control
T/C (dose: 56.25 mg/kg/injection, schedule: Q01DX009 (ip), vehicle: Klucel (hydroxypropylcellulose) (HPC)): 95 % of control
T/C (dose: 100.0 mg/kg/injection, schedule: Q04DX003 (ip), vehicle: alcohol): 105 % of control
T/C (dose: 112.5 mg/kg/injection, schedule: Q01DX009 (ip), vehicle: Klucel (hydroxypropylcellulose) (HPC)): 100 % of control
T/C (dose: 150.0 mg/kg/injection, schedule: Q04DX003 (ip), vehicle: Klucel (hydroxypropylcellulose) (HPC)): 100 % of control
T/C (dose: 225.0 mg/kg/injection, schedule: Q01DX009 (ip), vehicle: Klucel (hydroxypropylcellulose) (HPC)): 104 % of control
T/C (dose: 225.0 mg/kg/injection, schedule: Q04DX003 (ip), vehicle: Klucel (hydroxypropylcellulose) (HPC)): 104 % of control

CC1(C)CCC(C#N)=C1N
T/C (dose: 12.5 mg/kg/injection, schedule: Q01DX009 (ip), vehicle: saline with Tween-80): 95 % of control
T/C (dose: 25.0 mg/kg/injection, schedule: Q01DX009 (ip), vehicle: saline with Tween-80): 91 % of control
T/C (dose: 50.0 mg/kg/injection, schedule: Q01DX009 (ip), vehicle: saline with Tween-80): 95 % of control

CCC[CH2][Sn]1([CH2]CCC)[O]OC(c2ccccc2)[O]1 (stereo not drawn)
T/C (dose: 0.5 mg/kg/injection, schedule: Q01DX009 (ip), vehicle: saline with Tween-80): 109 % of control
T/C (dose: 1.0 mg/kg/injection, schedule: Q01DX009 (ip), vehicle: saline with Tween-80): 123 % of control
T/C (dose: 1.25 mg/kg/injection, schedule: Q04DX003 (ip), vehicle: other): 109 % of control
T/C (dose: 1.32 mg/kg/injection, schedule: Q01DX009 (ip), vehicle: saline with Tween-80): 115 % of control and 116 % of control
T/C (dose: 2.0 mg/kg/injection, schedule: Q01DX009 (ip), vehicle: saline with Tween-80): 110 % of control and 120 % of control
T/C (dose: 2.5 mg/kg/injection, schedule: Q04DX003 (ip), vehicle: other): 105 % of control and 113 % of control
T/C (dose: 5.0 mg/kg/injection, schedule: Q04DX003 (ip), vehicle: other): 118 % of control
T/C (dose: 12.0 mg/kg/injection, schedule: Q01DX009 (ip), vehicle: saline with Tween-80): 150 % of control

Cc1ccc(N(N)c2ccc(C)cc2)cc1
T/C (dose: 50.0 mg/kg/injection, schedule: Q01DX009 (ip), vehicle: Klucel (hydroxypropylcellulose) (HPC)): 100 % of control
T/C (dose: 50.0 mg/kg/injection, schedule: Q04DX003 (ip), vehicle: Klucel (hydroxypropylcellulose) (HPC)): 107 % of control
T/C (dose: 100.0 mg/kg/injection, schedule: Q01DX009 (ip), vehicle: Klucel (hydroxypropylcellulose) (HPC)): 118 % of control
T/C (dose: 100.0 mg/kg/injection, schedule: Q04DX003 (ip), vehicle: Klucel (hydroxypropylcellulose) (HPC)): 107 % of control
T/C (dose: 200.0 mg/kg/injection, schedule: Q01DX009 (ip), vehicle: Klucel (hydroxypropylcellulose) (HPC)): 113 % of control
T/C (dose: 200.0 mg/kg/injection, schedule: Q04DX003 (ip), vehicle: Klucel (hydroxypropylcellulose) (HPC)): 100 % of control

[Mg+2]
T/C (dose: 100.0 mg/kg/injection, schedule: Q01DX010 (ip), vehicle: saline): 100 % of control
T/C (dose: 200.0 mg/kg/injection, schedule: Q01DX010 (ip), vehicle: saline): 100 % of control
T/C (dose: 400.0 mg/kg/injection, schedule: Q01DX010 (ip), vehicle: saline): 100 % of control

C[C@]12CCC(=O)C=C1CC[C@@H]1[C@@H]2CC[C@@]2(C)[C@H]1CC[C@]2(C)O
T/C (dose: 100.0 mg/kg/injection, schedule: Q01DX009 (sc), vehicle: steriod suspending solution): 104 % of control
T/C (dose: 100.0 mg/kg/injection, schedule: Q04DX003 (sc), vehicle: steriod suspending solution): 105 % of control
T/C (dose: 200.0 mg/kg/injection, schedule: Q01DX009 (sc), vehicle: steriod suspending solution): 95 % of control
T/C (dose: 200.0 mg/kg/injection, schedule: Q04DX003 (sc), vehicle: steriod suspending solution): 90 % of control
T/C (dose: 400.0 mg/kg/injection, schedule: Q04DX003 (sc), vehicle: steriod suspending solution): 115 % of control
